According to PMC10587169, “Tuning aminopolycarboxylate chelators for efficient complexation of trivalent actinides” (Scientific Reports, 2023):
Where two headings read alike, the source gives them in different places.

Experiments:
[1] = Potentiometric titration, acid dissociation constants; assay type: physicochemical
Description: (§1) All potentiometric titrations were run using a Mettler Toledo T90 autotitrator equipped with an Orion Ross Semi-micro glass electrode with the junction stabilization solution changed to 5.0 M NaCl to prevent precipitation with perchlorate media. All titrations were performed under a hydrated nitrogen atmosphere. The forward titration measurements (acidic titrand, basic titrant) of H4octapa in nitrate electrolyte medium were performed as described previously due to the limited solubility of this ligand in a 2 M (Na^+/H^+)ClO4 medium. Acid dissociation constants of H4octapa in perchlorate electrolyte medium were also determined by titrating in reverse (basic titrand, acidic titrant) to alleviate the solubility concerns. Titrations of H4pypa-peg were performed in reduced-volume glass titration cups (10 mL nominal) due to the limited supply of this ligand. All potentiometric titrations were run in triplicate. The choice of using p[H^+] was explained in Heathman et al.[15], and the calibration of the p[H^+] scale utilized Gran analysis through titration of a strong acid with the base used in the potentiometric titrations[29]–[31]. Potentiometric titration data was modeled and analyzed using Hyperquad2013 to determine acid dissociation and metal complexation stability constants[32],[33].
Changes in hydrogen ion concentration were monitored using a glass electrode for a solution of H4octapa as either NaOH or HClO4 were titrated into the solutions. […] The experimental potentiometric curve collected for a forward titration of H4octapa in (Na^+/H^+)NO3 is presented in Fig. 3A, alongside the distribution curves for the identified HnL species. Following those studies, the acid/base conditions were reversed and octapa^4− was titrated in 2.0 M (Na^+/H^+)ClO4 using HClO4 (SI Figure S7). The potentiometric curves are well respresented by five proton dissociation equilibria. The calculated equilibrium constants correspond with the protonation reactions for two aliphatic amines, two pyridine nitrogens, and one carboxylate group with the protonation sequence described by Eq. (2). The acid dissociation constants (pKa = − log10Ka) for H4octapa are reported in Table 1 alongside previously reported values in the literature.
The experimental potentiometric titration curve and the distribution curves for the associated HnL species for H4pypa-peg are presented in Fig. 3B. […] For comparison, the protonation equilibria of H4edta were also studied in 2.0 M (Na^+/H^+)ClO4. The pKa values for H4edta are listed in Table 2 and collected potentiometric titration curves (forward and reverse) are presented in SI Figure S8. For H4pypa-peg coordination pocket the protonation of H9L^5+, H7L^3+, and H6L^2+ cannot be characterized using a glass electrode. The H6L^2+ species likely represents a protonated carboxylate group, while H5L^+ and H4L may describe the pyridinecarboxylate nitrogens. The equilibrium involving H3L^− likely describes the dissociation of the protonated pyridine nitrogen, while the two most basic species in this ligand (HL^3− and H2L^2−) are likely the bridging amines in the H4pypa-peg backbone. Equation (3) describes the protonation sequence for H4pypa-peg.3 H10-aL^+6-a⇆H9-aL^+5-a+H^+Ka=H^+·H9-aL^+5-a/H10-aL^+6-aa=1…9

[2] = Potentiometric complexometric titration; assay type: binding; conditions: for logβ101 (ML), Nd / logβ111 (MHL), Nd / logK111, Dy / logK111, Eu / logK111, Ho / logK111, La / logK111, Lu / logK111, Nd / logK111, Tb / logβ101 (ML), Dy / logβ101 (ML), Eu / logβ101 (ML), Ho / logβ101 (ML), La / logβ101 (ML), Lu / logβ101 (ML), Tb / logβ111 (MHL), Dy / logβ111 (MHL), Eu / logβ111 (MHL), Ho / logβ111 (MHL), La / logβ111 (MHL), Lu / logβ111 (MHL), Tb: potentiometry, I = 2.0 M (Na+/H+)ClO4, T = 20.0 °C; for logK111, Dy / logK111, Eu / logK111, Ho / logK111, La / logK111, Lu / logK111, Nd / logK111, Tb / logβ101 (ML), Dy / logβ101 (ML), Eu / logβ101 (ML), Ho / logβ101 (ML), La / logβ101 (ML), Lu / logβ101 (ML), Tb / logβ111 (MHL), Dy / logβ111 (MHL), Eu / logβ111 (MHL), Ho / logβ111 (MHL), La / logβ111 (MHL), Lu / logβ111 (MHL), Tb: ±3σ
Description: as §1
The coordination of La^3+, Nd^3+, Eu^3+, Tb^3+, Dy^3+, Ho^3+, and Lu^3+ with H4octapa and H4pypa-peg was studied. Figures 4A, B show the potentiometric curves collected when Nd^3+ was titrated with H4octapa and H4pypa-peg, respectively. Both p[H^+] curves show the characteristic buffering region due to deprotonation of metal–ligand complexes when titrated with base. The experimental p[H^+] trend is best represented when considering the presence of MHL(aq) and ML^– complexes as generalized by Eqs. (4) and (5). The progressive formation of the metal complexes throughout the titration is illustrated by species distribution curves, also shown in Figs. 4A, B. The complex formation equilibria are described by the conditional stability constants, β101 and β111, listed in Table 3.

[3] = aqueous 2.0 M (Na+/H+)ClO4 electrolyte solution, I = 2.0 M (Na+/H+)ClO4 at 20.0 °C, read-out: pKa H2L species
[4] = aqueous 2.0 M (Na+/H+)ClO4 electrolyte solution, I = 2.0 M (Na+/H+)ClO4 at 20.0 °C, read-out: pKa H3L species
[5] = aqueous 2.0 M (Na+/H+)ClO4 electrolyte solution, I = 2.0 M (Na+/H+)ClO4 at 20.0 °C, read-out: pKa H4L species
[6] = aqueous 2.0 M (Na+/H+)ClO4 electrolyte solution, I = 2.0 M (Na+/H+)ClO4 at 20.0 °C, read-out: pKa H5L species
[7] = aqueous 2.0 M (Na+/H+)ClO4 electrolyte solution, I = 2.0 M (Na+/H+)ClO4 at 20.0 °C, read-out: pKa H6L species
[8] = aqueous 2.0 M (Na+/H+)ClO4 electrolyte solution, I = 2.0 M (Na+/H+)ClO4 at 20.0 °C, read-out: pKa HL species

SMILES | pKa [1, 3] | pKa [1, 4] | pKa [1, 5] | pKa [1, 6] | pKa [1, 7] | pKa [1, 8] | logβ101 (ML), Nd [2] | logβ111 (MHL), Nd [2] | logK111, Dy [2] | logK111, Eu [2] | logK111, Ho [2] | logK111, La [2] | logK111, Lu [2] | logK111, Nd [2] | logK111, Tb [2] | logβ101 (ML), Dy [2] | logβ101 (ML), Eu [2] | logβ101 (ML), Ho [2] | logβ101 (ML), La [2] | logβ101 (ML), Lu [2] | other results
O=C(O)CN(CCN(CCN(CC(=O)O)CC(=O)O)CC(=O)O)CCN(CC(=O)O)CC(=O)O [H6ttha, triethylenetetraamine-N,N,N',N'',N''',N'''-hexaacetic acid] | 8.67 | 6.27 | 4.12 | 2.7 | 2.19 | 9.48 | 21.78(2) | 25.42(2) | – | – | – | – | – | – | – | – | – | – | – | – | pKa ([1]; aqueous 2.0 M (Na+/H+)ClO4 electrolyte solution, I = 2.0 M (Na+/H+)ClO4 at 20.0 °C, read-out: pKa H7L species): 1.86; logβ121 (MH2L), Nd3+ ([2]; determined using potentiometry, I = 2.0 M (Na+/H+)ClO4 at 20.0 °C): 27.74(3)
O=C(O)CN(CCN(CC(=O)O)Cc1cccc(C(=O)O)n1)Cc1cccc(C(=O)O)n1 [H4octapa, 6,6′-((ethane-1,2-diylbis–((carboxymethyl)azanediyl))bis–(methylene))dipicolinic acid] | 5.57 | 3.82 | 3.18 | 1.63 | – | 8.41 | 18.19 (1) | 19.92 (2) – | 1.28 (2) | 1.13 (4) | 0.53 (2) | 1.53 (4) | 1.69 (4) | 1.73 (2) – | 1.04 (7) | 18.48 (2) | 18.49 (2) | 18.57 (2) | 17.77 (2) | 17.97 (3) | pKa ([1]; aqueous 2.0 M (Na+/H+)NO3 electrolyte solution, I = 2.0 M (Na+/H+)NO3 at 25.0 °C, read-out: pKa H2L2-): 5.27; pKa ([1]; aqueous 2.0 M (Na+/H+)NO3 electrolyte solution, I = 2.0 M (Na+/H+)NO3 at 25.0 °C, read-out: pKa H3L-): 3.63; pKa ([1]; aqueous 2.0 M (Na+/H+)NO3 electrolyte solution, I = 2.0 M (Na+/H+)NO3 at 25.0 °C, read-out: pKa H4L(aq)): 3; pKa ([1]; aqueous 2.0 M (Na+/H+)NO3 electrolyte solution, I = 2.0 M (Na+/H+)NO3 at 25.0 °C, read-out: pKa H5L+): 1.63; pKa ([1]; aqueous 2.0 M (Na+/H+)NO3 electrolyte solution, I = 2.0 M (Na+/H+)NO3 at 25.0 °C, read-out: pKa HL3-): 8.16; logβ101 (ML), Tb [2]: 18.55 (2); logβ111 (MHL), Dy [2]: 19.76 (1); logβ111 (MHL), Eu [2]: 19.62 (4); logβ111 (MHL), Ho [2]: 19.10 (1); logβ111 (MHL), La [2]: 19.30 (4); logβ111 (MHL), Lu [2]: 19.66 (4); logβ111 (MHL), Tb [2]: 19.59 (7)
O=C(O)CN(Cc1cc(-c2cn(CCOCCOCCO)nn2)cc(CN(CC(=O)O)Cc2cccc(C(=O)O)n2)n1)Cc1cccc(C(=O)O)n1 [H4pypa-peg, 6,6'-((((4-(1-(2-(2-(2-hydroxyethoxy)ethoxy)ethyl)-1H-1,2,3-triazol-4-yl)pyridine-2,6-diyl)bis–(methylene))bis–((carboxymethyl)azanediyl))bis–(methylene)) dipicolinic acid] | – | – | – | – | – | – | 18.20 (2) | 20.43 (2) | 1.97 (2) | 1.96 (1) | 1.80 (4) | 2.32 (1) | 1.87 (5) | 2.22 (2) | 2.02 (2) | 20.05 (1) | 18.91 (1) | 20.50 (4) | 17.86 (1) | 20.72 (5) | pKa ([1]; aqueous 2.0 M (Na+/H+)ClO4 electrolyte solution, I = 2.0 M (Na+/H+)ClO4 (Table 2), read-out: pKa H2L2-): 6.45; pKa ([1]; aqueous 2.0 M (Na+/H+)ClO4 electrolyte solution, I = 2.0 M (Na+/H+)ClO4 (Table 2), read-out: pKa H3L-): 3.92; pKa ([1]; aqueous 2.0 M (Na+/H+)ClO4 electrolyte solution, I = 2.0 M (Na+/H+)ClO4 (Table 2), read-out: pKa H4L(aq)): 3.37; pKa ([1]; aqueous 2.0 M (Na+/H+)ClO4 electrolyte solution, I = 2.0 M (Na+/H+)ClO4 (Table 2), read-out: pKa H5L+): 2.45; pKa ([1]; aqueous 2.0 M (Na+/H+)ClO4 electrolyte solution, I = 2.0 M (Na+/H+)ClO4 (Table 2), read-out: pKa H6L2+): 1.43; pKa ([1]; aqueous 2.0 M (Na+/H+)ClO4 electrolyte solution, I = 2.0 M (Na+/H+)ClO4 (Table 2), read-out: pKa HL3-): 7.44; logβ101 (ML), Tb [2]: 19.75 (2); logβ111 (MHL), Dy [2]: 22.03 (2); logβ111 (MHL), Eu [2]: 20.87 (1); logβ111 (MHL), Ho [2]: 22.31 (4); logβ111 (MHL), La [2]: 20.18 (1); logβ111 (MHL), Lu [2]: 22.60 (5); logβ111 (MHL), Tb [2]: 21.77 (2)
O=C(O)CN(CCN(CC(=O)O)CC(=O)O)CCN(CC(=O)O)CC(=O)O [H5dtpa, diethylenetriamine-N,N,N',N'',N''-pentaacetic acid] | 8.31 | 5.57 | 4.38 | 2.53 | 2.41 | 9.5 | – | – | – | – | – | – | – | – | – | – | – | – | – | – | –
